Residue numbers refer to the chain shown, from its start. Where two headings read alike, the source gives them in different places. Marks after values point to notes of the source that are not given here. {3T} = T cap written 3T / [3'T]; {NH2} = amine group; m = 2'-O-methyl; r = 2'-OH (RNA); f = 2'-fluoro
Columns and labels:
TGFβ2 = target: T1, TGFβ2 (Homo sapiens, UniProt P61812); test: Nitrocellulose-filter partitioning binding of 32P-labeled aptamer to TGFβ-2 protein; set-up: A synthetic polynucleotide encoding full length human TGFβ2 mature protein was cloned into pRSET E. coli expression vector; made in house
T1 sequence (P61812 303-414 limits assumed): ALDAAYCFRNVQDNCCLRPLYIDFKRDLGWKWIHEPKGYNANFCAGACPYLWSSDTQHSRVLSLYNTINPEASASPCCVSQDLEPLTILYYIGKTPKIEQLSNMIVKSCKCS
Description: (§1) Dissociation constants for the binding of aptamers to purified human or rodent TGFβ-2 protein were determined by nitrocellulose-filter partitioning using ^32P-labeled RNA. In vitro transcribed RNA was treated with calf-intestinal alkaline phophatase (New England Biolabs) to remove 5′-triphosphates, then radio-labeled by incubation with γ-^32P-ATP and T4 polynucleotide kinase (New England Biolabs). Unincorporated label was removed by gel-filtration, and the RNAs were further purified by polyacrylamide gel electrophoresis (PAGE). Purified ^32P-labeled aptamer in water was refolded just prior to use by heating for 3 min at 95° C., followed by a 10 minute room-temperature incubation in binding buffer (50 mM Hepes, pH 7.4, 1 mM MgCl2, 1 mM CaCl2, 3 mM KCl, 140 mM NaCl, 0.1 mg/ml BSA, 0.01 mg/ml tRNA). The binding reactions (100 μL) were initiated by the addition of aptamer (≦0.1 nM) to excess TGFβ-2 protein (0.2-100 nM), followed by 10-30 minute equilibration at room temperature.
Nitrocellulose-filter partitioning was performed on Minifold® I, 96-well Dot-Blot manifolds (Schleicher & Schuell). Protein-bound aptamer and residual free aptamer were captured, respectively, on pre-wetted Protran nitrocellulose (Schleicher & Schuell) and Hybond-P polyvinylidene difluoride (Amersham Biosciences) filters by vacuum aspiration, and quantified by PhosphorImager (Amersham Biosciences). The proportion of protein-bound aptamer at each TGFβ-2 concentration was plotted as the ratio of counts-per-minute on the Protran nitrocellulose filter (CPMNC) to the sum of CPM on the Protran and Hybond-P filters (CPMtotal). Estimates of dissociation constants (KD) were obtained from a fit of the concentration of TGFβ-2 (i.e., [TGFβ-2])-dependent data to a standard binding isotherm: CPMNC/CPMtotal=Cmax/(1+KD/[TGFβ2]total), where Cmax equals the maximum observed value of CPMNC/CPMtotal at saturating [TGFβ-2], likely reflecting the proportion of properly-folded aptamer that is competent to recognize TGFβ-2.

[1] = system: TGFβ2 in rabbit aqueous humor; test: Aqueous humor challenge assay (MLEC proliferation); assay type: cell-based
Description: MLEC Assay. The mink lung epithelial cell proliferation assay is performed over two days. […]
(§2) On day 2:1) mix 20 μl BrdU with 2 ml 0.5% FBS media; 2) add 10 μl of BrdU mixture/well; 3) incubate cells at 37° C. in 5% CO2 for 3 hrs; 4) remove media and blot plates dry on paper towels; 5) add 200 μl/well FixDenat solution and incubate for 30 min at room temperature (RT); 6) remove FixDenat solution and blot plates dry on paper towels; 7) add 100 μl /well anti-BrdU POD solution and incubate for 90 min at RT; 8) remove anti-BrdU POD solution and blot plates dry on paper towels; 9) wash plates 3× with […] washing solution with 5 min RT incubations and blot plates dry on paper towels; 10) add 100 μl /well substrate solution and incubate for 3 min at RT in dark; and 11) read plates using PSP Luciferace 1 program on TopCount (Packard Bioscience Co., Downers Grove, Ill.).
MLECs were plated at 2,000 cells per well and incubated at 37° C. for 4 hours. […] Cell proliferation was measured using BrdU incorporation. […]

[2] = Pharmacokinetics via subconjunctival administration; assay type: in vivo, mice
Description: A pharmacokinetic study was performed to determine the pharmacokinetics of ARC81, ARC117 and ARC119, TGFβ2 aptamers having the sequences of SEQ ID NOs:4, 9 and 11, respectively), via subconjunctival administration in mice. These aptamers were formulated at a concentration of 10 mg/ml. Samples were collected at 0, 0.5, 1, 2, 6, 12, 24, 48 and 96 hours post-administration. FIGS. 21A, 21B and 21C show the aqueous humor and/or plasma concentration of each aptamer (in nM) through 50 hours post dose via subconjunctival administration.

human TGFβ2 [3] = target: T2, human TGFβ2 (Homo sapiens, UniProt P61812); test: MLEC proliferation assay (reversal of TGFβ2-mediated inhibition, BrdU); assay type: cell-based; details: for inhibition of the antiproliferative effects of TGFβ2: 50 pg/ml of TGFβ2, BrdU incorporation
T2 construct: two forms of mature TGFβ2 were generated, native and N-terminal his-tagged versions, in E. coli; made in house; host or cells: E. coli; added as soluble protein to MLEC
T2 sequence (P61812 303-414): T1 sequence (P61812 303-414 limits assumed)
Description: (§3) MLECs were plated at 2,000 cells per well and incubated at 37° C. for 4 hours. Aptamer and TGFβ2 were added at the indicated concentrations for 16 hours at 37° C. Cell proliferation was measured using BrdU incorporation. BrdU assay was performed as recommended by the manufacturer (Roche Diagnostics).
(§4) MLEC Assay. The mink lung epithelial cell proliferation assay is performed over two days. On day 1:1) media is aspirated off from Mink Lung Epithelial Cells (MLEC); 2) the MLEC are washed with 10 ml 1×PBS; 3) 3 ml Trypsin is added and Trypsinize for 3 min at 37° C.; 4) quench with 10 ml 0.5% FBS media; 5) spin at 1000 rpm for 3.30 min; 6) aspirate off supernatant; 7) resuspend pellet in 10 ml 0.5% FBS media; 8) Count 10 μl cell suspension; 9) adjust cell density to 80,000 cells/ml; 10) add 50 μl of cells/well to black bottomed 96-well plates (4000 cells/well); pipet up and down during plating process to avoid settling of cells and uneven plating; 11) incubate cells at 37° C. in 5% CO2 for 4 hrs to allow adherence of cells; 12) add 25 μl of aptamer (or media, or other test reagent, such as for example, an antibody), preferably the outer wells are not used for treated cells; 13) add 25 μl of TGFβ2 (typically 25 pg/ml); and 14) incubate cells at 37° C. in 5% CO2 overnight.
as §2

[4] = system: retinal pigmented epithelial (RPE) cells; test: RPE cell migration with PDGF; assay type: cell-based; details: 100 ng/ml PDGF
Description: The graphs presented in FIG. 15E and 15F show the increasing effect of PDGF concentration on RPE cell migration.

[5] = system: N-terminal His tagged human TGFβ2; test: Nitrocellulose-filter binding to His-tagged TGFβ2; details: FIG. 6C; read-out: binding affinity, N-terminal His tagged human TGFβ2
Description: A synthetic polynucleotide encoding full length human TGFβ2 mature protein was cloned into pRSET E. coli expression vector and transformed into BL21 (pLys) strain. The transformed cells were grown under conditions leading to TGFβ2 protein being expressed at high level and forming inclusion bodies. The inclusion bodies were purified and solubilized. The TGFβ2 was refolded and purified by S75 size exclusion chromatography (FIG. 4A). A His-tagged TGFβ2 was also generated by adding His6 plus 30 extra amino acids at the N terminus of TGFβ2. Mutations at positions 59 (S→T), 60 (R→K) and 94 (K→N), referred to herein as the S59T/R60K/K94N mutant, were introduced by site directed mutagenesis. Both the His-tagged and mutated TGFβ2 were expressed, refolded and purified using the same protocol as for wild type TGFβ2.
Dissociation constants for the binding of aptamers to purified human or rodent TGFβ-2 protein were determined by nitrocellulose-filter partitioning using ^32P-labeled RNA. […]
(§5) Nitrocellulose-filter partitioning was performed on Minifold® I, 96-well Dot-Blot manifolds (Schleicher & Schuell). Protein-bound aptamer and residual free aptamer were captured, respectively, on pre-wetted Protran nitrocellulose (Schleicher & Schuell) and Hybond-P polyvinylidene difluoride (Amersham Biosciences) filters by vacuum aspiration, and quantified by PhosphorImager (Amersham Biosciences). […]

mouse (NTK) TGFβ2 = target: T3, mouse (NTK) TGFβ2 (Homo sapiens, UniProt P61812, K396N/R362K/S361T); test: Nitrocellulose-filter binding to mouse TGFβ2; details: FIG. 6C; read-out: binding affinity, mouse (NTK) TGFβ2
T3 construct: A synthetic polynucleotide encoding full length human TGFβ2 mature protein was cloned into pRSET E. coli expression vector; made in house
T3 sequence (P61812 303-414 S361T/R362K/K396N): T1 sequence (P61812 303-414 limits assumed) with S59T, R60K, K94N
Description: as §1, §5

human TGFβ2 [6] = test: MLEC proliferation assay (reversal of TGFβ2-mediated inhibition, BrdU); assay type: cell-based; details: FIG. 6B
Description: as §3, §4, §2

[7] = 32P-labeled aptamer, nitrocellulose-filter partitioning, fit to Equation 1, read-out: Kd
[8] = Aq Humour, subconjunctival, 1 mg/eye bilaterally
[9] = PLASMA, subconjunctival, 1 mg/eye bilaterally
[10] = after subconjunctival administration

With “5′-NH2-mGmGmGmGfUfUAfUfUmAfCmAmGmAmGfUfCfUGfUAfUAmGfCfUmGfUmAfCfCfC-3T-3′ (GGGGUUAUUACAGAGUCUGUAUAGCUGUACCC; sugars from the 5' end mmmmffrffmfmmmmfffrfrfrmffmfmfff, 5' {NH2}, 3' {3T}, backbone not given here) [ARC81]” the Kd (TGFβ2; [7]) was 5.1 nM, the “rescue of rabbit aqueous humor-mediated inhibition of MLEC proliferation” value ([1]; 1.5% rabbit aqueous humor) was “rescued rabbit aqueous humor-mediated inhibition of MLEC proliferation in a dose dependent manner” and the “inhibition of antiproliferative effects of rabbit aqueous humor” value ([1]; low concentrations of rabbit aqueous humor (e.g., <10%), 1000 nM ARC81) was “inhibited the antiproliferative effects of low concentrations of rabbit aqueous humor”. For the same substance, the “AUC (0-t)” value [2, 8] was 36.0 nM·h, the Cmax [2, 8] was 5.19 nM and the MRT [2, 8] was 6.03* h. For the same substance, the TLAST [2, 8] was 12 h, the tmax [2, 8] was 6 h and the “AUC (0-t)” value [2, 9] was 29.8 nM·h. It also gave a Cmax [2, 9] of 6.44 nM, an MRT [2, 9] of 3.13 h and a TLAST [2, 9] of 12 h. For the same substance, the Vd [2, 9] was 21079 mL, the t1/2 [2, 9] was 2.42 h and the tmax [2, 9] was 1 h. For the same substance, the “detection in the aqueous humor” value [2, 10] was “detected in the aqueous humor”, the “time to enter systemic circulation” value [2, 10] was “less than 0.5 hour” and the “inhibition of the antiproliferative effects of TGFβ2” value (human TGFβ2 [3]) was “inhibit the antiproliferative effects of 50 pg/ml of TGFβ2”.

For “5′-[PEG40K]-NH2-dCdAdGfCmGfUdAfCmG-PEG-dCdGTdAdCdCmGdATfUfCmA-PEG-TdGdAdAdGfCfUmG-3T-3′ [ARC128, reference compound]”, the “blocking of RPE cell migration” value [4] was “has no activity”.

“5′-GGAGGfUfUAfUfUAfCAGAGfUfCfUGfUAfUAGfCfUGfUAfCfUfCfC-3T-3′ (GGAGGUUAUUACAGAGUCUGUAUAGCUGUACUCC; 2'-fluoro at CU, RNA at AG, 3' {3T}, backbone not given here) [ARC77]” showed a Kd (TGFβ2; [7]) of 3.6 nM, a Kd (TGFβ2; FIG. 6C, read-out: binding affinity, human wild type (WT) TGFβ2) of 2.5 ± 0.3 nM and a Kd (TGFβ2; read-out: KD) of 1 nM. For the same substance, the Kd [5] was ≥ 500 nM, the Kd (mouse (NTK) TGFβ2) was 80 ± 5 nM and the “inhibition of the antiproliferative effects of TGFβ2” value (human TGFβ2 [3]) was “inhibit the antiproliferative effects of 50 pg/ml of TGFβ2”. The IC50 (human TGFβ2 [3]; read-out: cell IC50) was 10 nM and the “potency against human versus rodent form of TGFβ2” value (human TGFβ2 [6]) was “more potent against the human form of TGFβ2 than the rodent version”.

Reference: patent publication US20040253243A1, “Aptamer therapeutics useful in ocular pharmacotherapy” (priority 2003, published 2004)
